SMILES strings stand for the structures.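 Growth conditions: 96-well plates. Treatment: test compound, 48 hours, 5 concentrations. Analysis: linear interpolation between bracketing concentrations; unreached endpoints set to highest concentration. TGI is the concentration that stops growth completely.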 Some results are limits rather than exact numbers.

For the first test, the system named is MOLT-4 leukemia. Briefly: NCI tumour cell line growth inhibition, 48 h.
`C/C=C1\CN2CCc3c([nH]c4ccccc34)C2CC1C(=O)OC` (stereo not given) registered a TGI of more than 322 µM.

The next test deals with NCI-H226 lung. Nature of the test: NCI tumour cell line growth inhibition, 48 h.
As for `CN(N=O)C(=O)ON1C(=O)CCC1=O`, the TGI is more than 100 µM.
On to `O=C1OC2(CC1C1(O)C3CC4CC(C3)CC1C4)C1CC3CC(C1)CC2C3` (stereo not given), for which the TGI was more than 100 µM.
In turn, `O=c1[nH]cc(COCCCO)c(=O)[nH]1` yielded a TGI of more than 100 µM.
With `C/C=C1\CN2CCc3c([nH]c4ccccc34)C2CC1C(=O)OC` (stereo not given), the TGI is more than 322 µM.

The test system of another test is NCI-H23 lung. Nature of the test: NCI tumour cell line growth inhibition, 48 h.
In turn, `CN(N=O)C(=O)ON1C(=O)CCC1=O` gave a TGI of more than 100 µM.
For the compound `O=C1OC2(CC1C1(O)C3CC4CC(C3)CC1C4)C1CC3CC(C1)CC2C3` (stereo not given), the TGI is more than 100 µM.
For the compound `O=c1[nH]cc(COCCCO)c(=O)[nH]1`, the TGI is more than 100 µM.
On to `C/C=C1\CN2CCc3c([nH]c4ccccc34)C2CC1C(=O)OC` (stereo not given), for which the TGI was more than 322 µM.

The subject of a further test is NCI-H460 lung. Nature of the test: NCI tumour cell line growth inhibition, 48 h.
On to `CN(N=O)C(=O)ON1C(=O)CCC1=O`, for which the TGI was more than 100 µM.
For `O=C1OC2(CC1C1(O)C3CC4CC(C3)CC1C4)C1CC3CC(C1)CC2C3` (stereo not given), the TGI is more than 100 µM.
The compound `O=c1[nH]cc(COCCCO)c(=O)[nH]1` came in with a TGI of more than 100 µM.
As for `C/C=C1\CN2CCc3c([nH]c4ccccc34)C2CC1C(=O)OC` (stereo not given), the TGI is more than 322 µM.

Another test relates to NCI-H522 lung. Nature of the test: NCI tumour cell line growth inhibition, 48 h.
The compound `CN(N=O)C(=O)ON1C(=O)CCC1=O` came in with a TGI of more than 100 µM.
`O=c1[nH]cc(COCCCO)c(=O)[nH]1`: the TGI was more than 100 µM.
`C/C=C1\CN2CCc3c([nH]c4ccccc34)C2CC1C(=O)OC` (stereo not given) came in with a TGI of more than 322 µM.

A further test deals with OVCAR-3 ovarian. Briefly: NCI tumour cell line growth inhibition, 48 h.
Consider `CN(N=O)C(=O)ON1C(=O)CCC1=O`, for which the TGI is more than 100 µM.
Same read-out and setting: to `O=C1OC2(CC1C1(O)C3CC4CC(C3)CC1C4)C1CC3CC(C1)CC2C3` (stereo not given) belongs more than 100 µM; to `O=c1[nH]cc(COCCCO)c(=O)[nH]1`, more than 100 µM; to `C/C=C1\CN2CCc3c([nH]c4ccccc34)C2CC1C(=O)OC` (stereo not given), more than 322 µM.

The next test has as its system OVCAR-4 ovarian. Briefly: NCI tumour cell line growth inhibition, 48 h.
Compound `CN(N=O)C(=O)ON1C(=O)CCC1=O` showed a TGI of more than 100 µM.
In turn, `O=C1OC2(CC1C1(O)C3CC4CC(C3)CC1C4)C1CC3CC(C1)CC2C3` (stereo not given) showed a TGI of 76.6 µM.
As for `O=c1[nH]cc(COCCCO)c(=O)[nH]1`, the TGI was more than 100 µM.

In another test the test system is OVCAR-5 ovarian. Briefly: NCI tumour cell line growth inhibition, 48 h.
`CN(N=O)C(=O)ON1C(=O)CCC1=O` registered a TGI of more than 100 µM.
The compound `O=c1[nH]cc(COCCCO)c(=O)[nH]1` had a TGI of more than 100 µM.
`C/C=C1\CN2CCc3c([nH]c4ccccc34)C2CC1C(=O)OC` (stereo not given) gave a TGI of more than 322 µM.

In a further test the test system is OVCAR-8 ovarian. Nature of the test: NCI tumour cell line growth inhibition, 48 h.
Turning to `CN(N=O)C(=O)ON1C(=O)CCC1=O`, the TGI is more than 100 µM.
Compound `O=C1OC2(CC1C1(O)C3CC4CC(C3)CC1C4)C1CC3CC(C1)CC2C3` (stereo not given) registered a TGI of more than 100 µM.
`O=c1[nH]cc(COCCCO)c(=O)[nH]1` had a TGI of more than 100 µM.
`C/C=C1\CN2CCc3c([nH]c4ccccc34)C2CC1C(=O)OC` (stereo not given): the TGI was more than 322 µM.

For the next test, the system named is RPMI-8226 leukemia. Nature of the test: NCI tumour cell line growth inhibition, 48 h.
`CN(N=O)C(=O)ON1C(=O)CCC1=O` displayed a TGI of more than 100 µM.
The same measure, in the same setting: to `O=c1[nH]cc(COCCCO)c(=O)[nH]1` belongs more than 100 µM; to `C/C=C1\CN2CCc3c([nH]c4ccccc34)C2CC1C(=O)OC` (stereo not given), more than 322 µM.

Another test deals with RXF 393 renal. Briefly: NCI tumour cell line growth inhibition, 48 h.
Take `O=C1OC2(CC1C1(O)C3CC4CC(C3)CC1C4)C1CC3CC(C1)CC2C3` (stereo not given): the TGI was more than 100 µM.
On the same count and under the same terms, to `O=c1[nH]cc(COCCCO)c(=O)[nH]1` belongs more than 100 µM; to `C/C=C1\CN2CCc3c([nH]c4ccccc34)C2CC1C(=O)OC` (stereo not given), more than 322 µM.

For another test, the system named is SF-268 CNS. Briefly: NCI tumour cell line growth inhibition, 48 h.
On to `CN(N=O)C(=O)ON1C(=O)CCC1=O`, for which the TGI is more than 100 µM.
Compound `O=C1OC2(CC1C1(O)C3CC4CC(C3)CC1C4)C1CC3CC(C1)CC2C3` (stereo not given) registered a TGI of more than 100 µM.
The compound `O=c1[nH]cc(COCCCO)c(=O)[nH]1` yielded a TGI of more than 100 µM.
On to `C/C=C1\CN2CCc3c([nH]c4ccccc34)C2CC1C(=O)OC` (stereo not given), for which the TGI was more than 322 µM.

The next test concerns SF-295 CNS. Briefly: NCI tumour cell line growth inhibition, 48 h.
Take `O=C1OC2(CC1C1(O)C3CC4CC(C3)CC1C4)C1CC3CC(C1)CC2C3` (stereo not given): the TGI stood at 73.1 µM.
In the case of `O=c1[nH]cc(COCCCO)c(=O)[nH]1`, the TGI is more than 100 µM.
Compound `C/C=C1\CN2CCc3c([nH]c4ccccc34)C2CC1C(=O)OC` (stereo not given) registered a TGI of more than 322 µM.

Another test concerns SF-539 CNS. Nature of the test: NCI tumour cell line growth inhibition, 48 h.
For the compound `CN(N=O)C(=O)ON1C(=O)CCC1=O`, the TGI is more than 100 µM.
Compound `O=C1OC2(CC1C1(O)C3CC4CC(C3)CC1C4)C1CC3CC(C1)CC2C3` (stereo not given) came in with a TGI of more than 100 µM.
In the case of `O=c1[nH]cc(COCCCO)c(=O)[nH]1`, the TGI is more than 100 µM.
For the compound `C/C=C1\CN2CCc3c([nH]c4ccccc34)C2CC1C(=O)OC` (stereo not given), the TGI was more than 322 µM.

A further test has as its system SK-MEL-2 melanoma. Nature of the test: NCI tumour cell line growth inhibition, 48 h.
Compound `CN(N=O)C(=O)ON1C(=O)CCC1=O` gave a TGI of more than 100 µM.
As for `O=C1OC2(CC1C1(O)C3CC4CC(C3)CC1C4)C1CC3CC(C1)CC2C3` (stereo not given), the TGI was more than 100 µM.
In turn, `O=c1[nH]cc(COCCCO)c(=O)[nH]1` had a TGI of more than 100 µM.
